The results in this text go back to US6835751B2, “Bicyclic amino acids as pharmaceutical agents” (Warner-Dambert Company LLC, priority 1999, dated 2004).

Assay [1] concerns carrageenan-induced hyperalgesia model. The assay can be described thus: Carrageenin-induced hyperalgesia, rat paw pressure test (Randall-Selitto). Type of assay: in vivo. Particulars: dosed orally at 30 mg/kg. As for the experimental part: Carrageenin-Induced Hyperalgesia
Nociceptive pressure thresholds were measured in the rat paw pressure test using an analgesimeter (Randall-Selitto method: Randall L. O. and Selitto J. J., “A method for measurement of analgesic activity on inflamed tissue,” Arch. Int. Pharmacodyn., 1957;4:409-419). Male Sprague-Dawley rats (70-90 g) were trained on this apparatus before the test day. Pressure was gradually applied to the hind paw of each rat and nociceptive thresholds were determined as the pressure (g) required to elicit paw withdrawal. A cutoff point of 250 g was used to prevent any tissue damage to the paw. On the test day, two to three baseline measurements were taken before animals were administered 100 μL of 2% carrageenin by intraplantar injection into the right hind paw.
(R)-2-Aza-spiro[4.5]decane-4-carboxylic acid hydrochloride was tested in the above carrageenan-induced hyperalgesia model. The compound was dosed orally at 30 mg/kg, and 1 hour postdose gave a percent of maximum possible effect ([…]) of 53%. At 2 hours postdose, it gave only 4.6% of MPE.

Assay [2] has as its system α2δ subunit. The assay can be described thus: radioligand binding assay using [3H]gabapentin and the α2δ subunit. The settings on record: [3H]gabapentin radioligand; α2δ subunit from porcine brain tissue.

Molecules are shown by their SMILES. Where a name gives a salt, the structure may show the parent alone.

Consider `Cl.O=C(O)[C@H]1CNCC12CCCCC2` [(R)-2-Aza-spiro[4.5]decane-4-carboxylic acid hydrochloride], for which the “percent of maximum possible effect (APE)” value in assay [1] (1 hour postdose) is recorded as 53%. Also, the “% of MPE” value in assay [1] (2 hours postdose) came to 4.6%.
`NC[C@]1(CC(=O)O)C[C@H]2CCC[C@H]2C1` [(1α,3α,5α)(2-Aminomethyl-octahydro-pentalen-2-yl)-acetic Acid Hydrochloride]: in assay [2], the “α2δ binding affinity” value stood at 1.58 µM.
In the case of `NC[C@]1(CC(=O)O)C[C@H]2CCCC[C@H]2C1` [(1α,6α,8α)(2-Aminomethyl-octahydro-inden-2-yl)-acetic acid hydrochloride], the “α2δ binding affinity” value in assay [2] stood at 0.72 µM.
Same read-out and setting: the value for `NCC1(CC(=O)O)C[C@H]2CC[C@@H]2C1` (racemic) [(±)-(1α,5β)(3-aminomethyl-bicyclo[3.2.0]hept-3-yl)-ascetic Acid Hydrochloride] was 2.86 µM.
On the same count and under the same terms, the value for `NCC1(CC(=O)O)C[C@H]2CCC[C@@H]2C1` (racemic) [(±)-(1α,5β)(2-Aminomethyl-octahydro-pentalen-2-yl)-acetic Acid Hydrochloride] was >10 µM; that for `NCC1(CC(=O)O)C[C@H]2CCCC[C@@H]2C1` (racemic) [(±)-(1α,6β)(2-Aminomethyl-octahydro-inden-2-yl)-acetic Acid Hydrochloride] was >10 µM.
Consider `NC[C@]1(CC(=O)O)C[C@H]2CC[C@H]2C1` [(1α,3α,5α)(3-Aminomethyl-bicyclo[3.2.0]hept-3-yl)-acetic Acid Hydrochloride], for which the “α2δ binding affinity” value in assay [2] is 0.038 µM.
On the same count and under the same terms, the value for `NC[C@@]1(CC(=O)O)C[C@H]2CCCC[C@H]2C1` [((1α,6α,8β)(2-Aminomethyl-octahydro-inden-2-yl)-acetic Acid Hydrochloride] was >10 µM; that for `NC[C@@]1(CC(=O)O)C[C@H]2CC[C@H]2C1` [(1α,3β,5α)(3-Aminomethyl-bicyclo[3.2.0]hept-3-yl)-acetic acid hydrochloride] was 0.332 µM.
